{
  "source": "patent US20160295854A1",
  "about": "“COMPOSITION AND METHOD FOR EX-VIVO IMMUNOMODULATION AND/OR PRESERVATION OF ORGANS, METHODS AND USE” (UNIAO BRASILEIRA DE EDUCACAO E ASSISTENCIA , MANTENEDORA DA …, priority 2014, published 2016)",
  "key": {"[1]": {"tested_on": "CD4+ and CD8+ T cells in recipient DLN", "assay": "Recipient responses in DLN (cell count, Ki67 proliferation, Tregs)", "format": "in vivo, mice (Mus musculus)", "protocol": "Cells of the donor mice (I-A^b+ or GFP+) were detected in the axillary lymph nodes of the recipients, 24 h or 96 h after the transplantation by flow cytometry. The transplanted mice were sacrificed, the axillary lymph nodes were removed and macerated in a nylon screen with a mean that had D Collagenase (Roche®). We achieved a cell suspension that had the cells in contact with Tripan blue and analyzed by flow cytometry.\nFor analyzing the recipients T cells, the cells were marked for CD4 (GK1.5), CD8a (53-6.7), Foxp3 (MF23), Ki67 (B56) achieved from BD Biosciences. The specific transcription factor marking of Tregs Foxp3 was performed using the kit Mouse Foxp3 Buffer Set (BD Biosciences), according to the manufacturer instructions. The levels of phosphorylated ERK and STAT3 were determined using antibodies for p-ERK1/2 and p-STAT3 (BD Biosciences) in BMDCs previously fixed and permeablized. The cells were subsequently analyzed in the flow cytometer FACSCanto II (BD Biosciences) with the BD FACSDiva (BD Biosciences) program. The data achieved were analyzed with the Flowjo program (version 7.6.5, Tree Star).\nWhen analyzed the median responses in the Recipients' DLNs, it was noted, for inventors surprise, which animals that received grafts treated with OVA presented organs in a greater size when compared with animals that received grafts treated with Hsp70.\nFor analyzing this hypothesis, the proliferation of these cells was analyzed by marking with Ki67 in the transplanted animals DLN. Ki67 is a molecule having a role in the cellular cycle and is expressed by any organism cell that is proliferating. […] An increase in the number of regulating T cells (Tregs) may reduce the alloreactive T cells proliferation in the recipient DLN, delaying the rejection to grafts. […] These findings are in accordance with the observation that immature DCs administration in human leads to an inhibition of the CD8+ T cells effector functions.\nFIG. 7. […]"}, "[2]": {"tested_on": "cutaneous allograft (B6 donor skin in BALB/c recipients)", "assay": "Cutaneous allograft model, graft immersion followed by topic application", "format": "in vivo, mice (Mus musculus)", "description": "That is, animals that received grafts treated with Hsp70 receive the local application of a Hsp70 solution and the same for OVA.\nAfter this, the grafts were sutured in BALB/c (I-A^d) animals' back. […] The animals were daily monitored. (A) Schematic representation of the treatment strategy used in the experiment. (B) Photographic record of the clinical progression of the acute rejection in groups Hsp70 and OVA. […] Data achieved from previous experiments."}, "MHC II": {"tested_on": "MHC II", "assay": "MHC II (I-A^b) expression in DCs isolated from skin draining lymph nodes", "format": "cell-based, mice (Mus musculus)", "protocol": "CD11c+ cells were purified from lymph nodes that drain mice skin antigens C57Bl/6 WT or TLR2 KO, and 129Sv/Ev WT or IL-10 KO. The animals were sacrificed and the axial, brachial and inguinal lymph nodes were removed. These organs were macerated in a nylon screen with a mean that has D Collagenase (Roche). The cell suspension achieved was marked with the magnetic beads conjugated with an anti-CD11c antibody (N418) (Miltenyi Biotech) for 15 min. After being washed, the CD11c+ cells were purified by positive selecting using the MACS MS (Miltenyi Biotech) separation columns, according to the manufacturer instructions. The cells purity purified was controlled by flow cytometry, indicating a purity of 90% CD11c+ cells in the positive fraction. Therefore, the cells were grown in 96-well plates in serum free mean AIM-V® (Gibco).\nThe supernatants were collected and used for analyzing cytokine. The cells were further treated with 20 ng/ml of Rapamycin (Cell Signaling), 1 μg/ml of Cyclosporine A (Roche) or 20 ng/ml of IL-10 recombinant murine (R&D System) for 24 h and the total RNA was removed.\nFor analyzing the migration and activation of the DCs subtypes, the cells were marked for I-A^b (AF6-120.1), CD11c (HL3), CD11b (M1/70), CD45R/B220 (RA3-6B2), CD103 (M290), CCR7 (CD197-4B12), CD80 (16-10A1), CD86 (GL1) antibodies achieved from BD Biosciences; and Langerin (CD207—eBioRMUL.2) from eBioscience.\nAfter this period, the expression of I-A^b in the DCs was analyzed by flow cytometry.\n(A) Analysis strategy for DCs subtypes present in the mice recipients DNL. […] After this period, the expression of I-A^b was analyzed in the DCs CD103+. Graphs expressed on average ±SEM. **, p<0.01; ***, […]. n=3 mice per group. Representative results of 3 independent experiments.\nAfter that, IL-10 mRNA levels were analyzed by Real-time PCR. The β-actin was used as a setter. The IL-10 concentration was measured in the cultures supernatant by flow cytometry. […] (C) As in A, however the MARCH-I mRNA levels were analyzed by Real-time PCR. […] DCs IL-10 KO were also treated with Recombinant IL-10. All treatments were performed for 24 h and MARCH-I mRNA levels were analyzed by Real-time PCR. […] After this period, grafts were sutured in the BALB/c animals' back and the acceptance was daily monitored. Graphs expressed on average ±SEM. *, p<0.05; **, p<0.01; ***, […]. n=3-5 mice per group. Representative results of 3 independent experiments.\nThe β-actin was used as setter. […] (C) Representative graphs and percentages of the CD11c+ I-Ab^hi, CD11c+I-Ab^int and CD11c+I-Ab^low cells of DCs isolated from LNs draining skin antigens of WT animals or TLR2 KO. […] After this period, the treated grafts were sutured in the BALB/c animals' back and the acceptance was daily monitored. […]"}, "ERK": {"tested_on": "ERK", "assay": "p-ERK intracellular marking in BMDCs", "format": "cell-based, mice (Mus musculus)"}},
  "data": [
    {"substance": "Hsp70: recombinant Mycobacterium tuberculosis Hsp70 (DnaK) produced in Escherichia coli BL21, LPS removed", "values": [
      {"measurement": "total of cells of the Recipients' DLNs (FIG. 7 A)", "setting": "[1]; days 1, 4, 7 and 10 after transplantation, vs OVA", "value": "lower absolute number of cells"},
      {"measurement": "CD4+ and CD8+ T cells proliferation (Ki67) in recipient DLN (FIG. 7 B, C)", "setting": "[1]; graft treated by immersion", "value": "reduction marked"},
      {"measurement": "Tregs in the recipient DLN (FIG. 7 D)", "setting": "[1]; graft treated by immersion", "value": "not detected a significant increase"},
      {"measurement": "graft survival, immersion plus topic application until day 7 (FIG. 18)", "setting": "[2]; compared to animals treated with OVA", "value": "much bigger"},
      {"measurement": "Survival median", "setting": "[2]; group '- 1 day'", "value": 17.0, "unit": "days"},
      {"measurement": "MHC II expression in DCs isolated from skin draining lymph nodes (FIG. 3)", "setting": "MHC II; 24 h, vs OVA", "value": "increase in the number of DCs expressing intermediate or low levels of MHC II"},
      {"measurement": "MHC II expression inhibition in DCs TLR2 KO (FIG. 12 C)", "setting": "MHC II; DCs isolated from LNs of WT or TLR2 KO", "value": "dependent on TLR2"},
      {"measurement": "reduction of MHC II expression in IL-10 KO DCs (FIG. 11 B)", "setting": "MHC II; DCs of knockout animals for IL-10", "value": "not possible to note this phenomenon"},
      {"measurement": "MHC II expression in DCs CD103+ isolated from the lymph nodes (FIG. 9 C)", "setting": "MHC II; in vitro, 30 μg/ml, 24 h", "value": "reduce in vitro the MHC II expression"},
      {"measurement": "p-ERK levels in BMDCs (FIG. 13 A)", "setting": "ERK; 30 μg/ml, after 15 minutes of stimulus, WT", "value": "increase in the phosphor ERK levels"},
      {"measurement": "p-ERK levels in TLR2 KO BMDCs (FIG. 13 B)", "setting": "ERK; TLR2 KO BMDCs, 15 minutes", "value": "increase was not noted"}
    ]}
  ]
}
